#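 Dose response: 5 concentrations. Exposure: 48 h. Format: 96-well plates. Endpoint: linear interpolation; highest concentration if not reached. At the TGI there is no net growth.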
# Experiments:
# Assay in all cases: DTP human tumour cell line panel, 48 h
# BT-549 breast = tested on: BT-549 breast
# SK-MEL-5 melanoma = tested on: SK-MEL-5 melanoma
# IGROV1 ovarian = tested on: IGROV1 ovarian
# M14 melanoma = tested on: M14 melanoma
# UACC-62 melanoma = tested on: UACC-62 melanoma
# MALME-3M melanoma = tested on: MALME-3M melanoma
# HT29 colon = tested on: HT29 colon
# UO-31 renal = tested on: UO-31 renal
# COLO 205 colon = tested on: COLO 205 colon
# HL-60(TB) leukemia = tested on: HL-60(TB) leukemia
# KM12 colon = tested on: KM12 colon
# HOP-92 NSCLC = tested on: HOP-92 NSCLC
# DU-145 prostate = tested on: DU-145 prostate
# CAKI-1 renal = tested on: CAKI-1 renal
# SK-OV-3 ovarian = tested on: SK-OV-3 ovarian
# MDA-MB-435 = tested on: MDA-MB-435
# CCRF-CEM leukemia = tested on: CCRF-CEM leukemia
# SW-620 colon = tested on: SW-620 colon
# ACHN renal = tested on: ACHN renal
# HCT-116 colon = tested on: HCT-116 colon
# NCI-H226 lung = tested on: NCI-H226 lung
# PC-3 prostate = tested on: PC-3 prostate
# SF-295 CNS = tested on: SF-295 CNS
# TK-10 renal = tested on: TK-10 renal
# SF-268 CNS = tested on: SF-268 CNS
# SNB-19 CNS = tested on: SNB-19 CNS
# NCI-H460 lung = tested on: NCI-H460 lung
# RXF 393 renal = tested on: RXF 393 renal
# OVCAR-8 ovarian = tested on: OVCAR-8 ovarian
# K-562 leukemia = tested on: K-562 leukemia
# MCF7 breast = tested on: MCF7 breast
# SF-539 CNS = tested on: SF-539 CNS
# OVCAR-4 ovarian = tested on: OVCAR-4 ovarian
# SN12C renal = tested on: SN12C renal
# MDA-N = tested on: MDA-N
# OVCAR-3 ovarian = tested on: OVCAR-3 ovarian
# HOP-62 NSCLC = tested on: HOP-62 NSCLC
# SR leukemia = tested on: SR leukemia
# NCI/ADR-RES ovarian = tested on: NCI/ADR-RES ovarian
# LOX IMVI melanoma = tested on: LOX IMVI melanoma
# HCC-2998 colon = tested on: HCC-2998 colon
# NCI-H522 lung = tested on: NCI-H522 lung
# SK-MEL-2 melanoma = tested on: SK-MEL-2 melanoma
# EKVX NSCLC = tested on: EKVX NSCLC
# SK-MEL-28 melanoma = tested on: SK-MEL-28 melanoma
# A549 NSCLC = tested on: A549 NSCLC
# HCT-15 colon = tested on: HCT-15 colon
# MDA-MB-231 breast = tested on: MDA-MB-231 breast
# 786-0 renal = tested on: 786-0 renal
# UACC-257 melanoma = tested on: UACC-257 melanoma
# HS 578T breast = tested on: HS 578T breast
# SNB-75 CNS = tested on: SNB-75 CNS
# MOLT-4 leukemia = tested on: MOLT-4 leukemia
# OVCAR-5 ovarian = tested on: OVCAR-5 ovarian
# RPMI-8226 leukemia = tested on: RPMI-8226 leukemia
# NCI-H23 lung = tested on: NCI-H23 lung
# U251 CNS = tested on: U251 CNS
# T-47D breast = tested on: T-47D breast
# A498 renal = tested on: A498 renal
structure (smiles),measurement,setting,value
COc1ccc(C(C#N)NC23CC4CC(CC(C4)C2)C3)cc1OC (stereo not drawn),TGI,BT-549 breast,> 100 µM
same,TGI,SK-MEL-5 melanoma,> 100 µM
same,TGI,IGROV1 ovarian,> 100 µM
same,TGI,M14 melanoma,> 100 µM
same,TGI,UACC-62 melanoma,> 100 µM
same,TGI,MALME-3M melanoma,> 100 µM
same,TGI,HT29 colon,> 100 µM
same,TGI,UO-31 renal,> 100 µM
same,TGI,COLO 205 colon,> 100 µM
same,TGI,HL-60(TB) leukemia,> 100 µM
same,TGI,KM12 colon,> 100 µM
same,TGI,HOP-92 NSCLC,> 100 µM
same,TGI,DU-145 prostate,> 100 µM
same,TGI,CAKI-1 renal,> 100 µM
same,TGI,SK-OV-3 ovarian,> 100 µM
same,TGI,MDA-MB-435,> 100 µM
same,TGI,CCRF-CEM leukemia,> 100 µM
same,TGI,SW-620 colon,> 100 µM
same,TGI,ACHN renal,> 100 µM
same,TGI,HCT-116 colon,> 100 µM
same,TGI,NCI-H226 lung,> 100 µM
same,TGI,PC-3 prostate,> 100 µM
same,TGI,SF-295 CNS,> 100 µM
same,TGI,TK-10 renal,> 100 µM
same,TGI,SF-268 CNS,> 100 µM
same,TGI,SNB-19 CNS,> 100 µM
same,TGI,NCI-H460 lung,> 100 µM
same,TGI,RXF 393 renal,> 100 µM
same,TGI,OVCAR-8 ovarian,> 100 µM
same,TGI,K-562 leukemia,> 100 µM
same,TGI,MCF7 breast,> 100 µM
same,TGI,SF-539 CNS,> 100 µM
same,TGI,OVCAR-4 ovarian,> 100 µM
same,TGI,SN12C renal,> 100 µM
same,TGI,MDA-N,> 100 µM
same,TGI,OVCAR-3 ovarian,> 100 µM
same,TGI,HOP-62 NSCLC,> 100 µM
same,TGI,SR leukemia,> 100 µM
same,TGI,NCI/ADR-RES ovarian,> 100 µM
same,TGI,LOX IMVI melanoma,> 100 µM
same,TGI,HCC-2998 colon,> 100 µM
same,TGI,NCI-H522 lung,> 100 µM
same,TGI,SK-MEL-2 melanoma,> 100 µM
same,TGI,EKVX NSCLC,> 100 µM
same,TGI,SK-MEL-28 melanoma,> 100 µM
same,TGI,A549 NSCLC,> 100 µM
same,TGI,HCT-15 colon,> 100 µM
same,TGI,MDA-MB-231 breast,> 100 µM
same,TGI,786-0 renal,> 100 µM
same,TGI,UACC-257 melanoma,> 100 µM
same,TGI,HS 578T breast,> 100 µM
same,TGI,SNB-75 CNS,> 100 µM
same,TGI,MOLT-4 leukemia,> 100 µM
same,TGI,OVCAR-5 ovarian,> 100 µM
same,TGI,RPMI-8226 leukemia,> 100 µM
same,TGI,NCI-H23 lung,> 100 µM
same,TGI,U251 CNS,> 100 µM
same,TGI,T-47D breast,> 100 µM
Oc1ccc(Cl)cc1-c1[nH]c(=S)nc(-c2ccccc2)c1Cl,TGI,BT-549 breast,> 100 µM
same,TGI,SK-MEL-5 melanoma,> 100 µM
same,TGI,IGROV1 ovarian,> 100 µM
same,TGI,M14 melanoma,> 100 µM
same,TGI,MALME-3M melanoma,> 100 µM
same,TGI,HT29 colon,> 31.6 µM
same,TGI,UO-31 renal,> 100 µM
same,TGI,COLO 205 colon,> 100 µM
same,TGI,HL-60(TB) leukemia,> 100 µM
same,TGI,KM12 colon,> 100 µM
same,TGI,HOP-92 NSCLC,> 100 µM
same,TGI,DU-145 prostate,> 100 µM
same,TGI,CAKI-1 renal,> 100 µM
same,TGI,SK-OV-3 ovarian,> 100 µM
same,TGI,MDA-MB-435,> 100 µM
same,TGI,CCRF-CEM leukemia,> 100 µM
same,TGI,SW-620 colon,> 100 µM
same,TGI,ACHN renal,> 100 µM
same,TGI,HCT-116 colon,> 100 µM
same,TGI,NCI-H226 lung,> 100 µM
same,TGI,PC-3 prostate,> 100 µM
same,TGI,SF-295 CNS,> 87.8 µM
same,TGI,TK-10 renal,> 100 µM
same,TGI,SF-268 CNS,> 100 µM
same,TGI,SNB-19 CNS,> 100 µM
same,TGI,NCI-H460 lung,> 100 µM
same,TGI,RXF 393 renal,> 100 µM
same,TGI,OVCAR-8 ovarian,> 100 µM
same,TGI,K-562 leukemia,> 100 µM
same,TGI,MCF7 breast,> 100 µM
same,TGI,OVCAR-4 ovarian,> 100 µM
same,TGI,SN12C renal,> 100 µM
same,TGI,MDA-N,> 100 µM
same,TGI,OVCAR-3 ovarian,> 100 µM
same,TGI,HOP-62 NSCLC,> 84.9 µM
same,TGI,SR leukemia,> 100 µM
same,TGI,NCI/ADR-RES ovarian,> 100 µM
same,TGI,LOX IMVI melanoma,> 100 µM
same,TGI,NCI-H522 lung,> 31.6 µM
same,TGI,SK-MEL-2 melanoma,> 100 µM
same,TGI,SK-MEL-28 melanoma,> 100 µM
same,TGI,A549 NSCLC,> 100 µM
same,TGI,HCT-15 colon,> 100 µM
same,TGI,MDA-MB-231 breast,97.2 µM
same,TGI,786-0 renal,> 100 µM
same,TGI,UACC-257 melanoma,> 100 µM
same,TGI,HS 578T breast,> 100 µM
same,TGI,SNB-75 CNS,70.1 µM
same,TGI,MOLT-4 leukemia,> 100 µM
same,TGI,OVCAR-5 ovarian,> 100 µM
same,TGI,RPMI-8226 leukemia,> 100 µM
same,TGI,NCI-H23 lung,> 100 µM
same,TGI,A498 renal,> 100 µM
same,TGI,U251 CNS,97.9 µM
same,TGI,T-47D breast,> 100 µM

# — PubChem BioAssay (NCI)
